Test results as given in patent US20250127777A1, “DUAL INHIBITION OF MDM2 AND EIF2-ALPHA INDUCES CELL DEATH IN MULTIPLE CANCER CELL TYPES” (The Regents of the University of Colorado, A Body Corporate, priority 2022, published 2025).

How the values were obtained:
HCT116 xenograft tumors = test: HCT116 xenograft tumor model; format: in vivo; details: nude mice, 200 mg/kg nelfinavir and/or 200 mg/kg milademetan
Experimental: Athymic nude mice (NU/NU) weighting 20 to 30 grams and being 8-12 weeks of age (Charles River Labs) were housed in cages under standard conditions (22° C., 50% relative humidity, 12-h light/dark cycles) and provided with food and water ad libitum. Next, […] exponentially growing HCT116 cells resuspended in 100 μl Matrigel/PBS (5 mg/ml final) were injected subcutaneously into both flanks. Tumors grew for 10-14 days before treatment initiation. Experimental animals were given 200 mg/kg nelfinavir and/or 200 mg/kg Milademetan (Rain Therapeutics) by oral gavage once daily, 5 days a week. Tested compounds were prepared in a mixture of 2% Klucel (hydroxypropyl cellulose), 0.5% Tween 80, and 35% ethanol. Tumor volumes (v) were estimated daily, 5 days a week using caliper measurements and formula v=(I×w^2)/2, where I represents the greatest length of the tumor and w is tumor width in the perpendicular axis. Average volumes of the right and left flank tumors were used for plotting and calculations. Equal ratios of male and female mice were used in treatment groups (5 males and 5 females). All in vivo experiments were approved by the Institutional Animal Care and Use Committee at the CU-AMC (IACUC protocol 00432).
After indicated treatments, cells were washed with PBS, total RNA was extracted using Trizol substitute (38% Phenol, saturated, pH 4.3, 0.8 M guanidine thiocyanate, 0.4 M ammonium thiocyanate, 0.1 M sodium acetate, pH 5.0, 5% glycerol), and converted to cDNA with High-Capacity cDNA Reverse Transcription Kit (Thermo Fisher). Next, diluted cDNA was used in quantitative PCR reaction using SYBR Select Master Mix for CFX (Thermo Fisher). Detected mRNA levels were normalized to 18s rRNA values.
Tumors fixed in 4% formaldehyde were transferred to 70% ethanol and embedded in paraffin at the Pathology Shared Resource-Research Histology, University of Colorado Anschutz Medical Campus. Three tumors from each experimental group were sectioned, stained with DAPI and Ki67 primary antibody using Akoya Opal technology (Akoya Biosciences), and scanned at six representative regions with Vectra 3.0 (Akoya Biosciences) at the Human Immune Monitoring Shared Resource (University of Colorado Anschutz). Next, InForm image analysis software (Akoya Biosciences) was used for automated identification of nuclei based on the DAPI signal. Ki67 nuclear fluorescence was outputted for all nuclei.

cell viability = test: Cell viability after single-agent treatment; format: cell-based

SMILES | animal survival (Kaplan Meier; humane endpoint tumor size>1000 mm^3) (HCT116 xenograft tumors; oral gavage) | tumor growth (HCT116 xenograft tumors; oral gavage once daily, 5 days a week) | effects on cell viability when administered alone (cell viability)
CC1(C)CCC2(CC1)N[C@@H](C(=O)N[C@@H]1CC[C@@H](C(N)=O)OC1)[C@H](c1ccnc(Cl)c1F)[C@]21C(=O)Nc2cc(Cl)ccc21 [milademetan] | had to be sacrificed at the humane endpoint | Tumors continued to grow | limited effects on cell viability
COc1ncc(-c2nc3c(n2C(C)C)[C@H](c2ccc(Cl)cc2)N(c2cc(Cl)cn(C)c2=O)C3=O)c(OC)n1 [siremadlin/HDM201, siremadlin] |  |  | limited effects on cell viability
COc1cc(C(=O)O)ccc1NC(=O)[C@@H]1N[C@@H](CC(C)(C)C)[C@](C#N)(c2ccc(Cl)cc2F)[C@H]1c1cccc(Cl)c1F [idasanutlin] |  |  | limited effects on cell viability
